Data published in patent US9512120B2, “Microbicidally active imidazopyridine derivatives” (Syngenta Participations AG, priority 2013, dated 2016).

Experiments:
[1] = system: Puccinia recondita f. sp. Tritici; experiment: Puccinia recondita f. sp. tritici / wheat / leaf disc preventative (brown rust); format: in vivo; conditions: foliar, wheat leaf segments cv Kanzler, inoculated 1 day after application, assessed 7-9 days after application, read-out: control of Puccinia recondita f. sp. Tritici (percent disease control compared to untreated)
Method: Puccinia recondita f. Sp. Tritici/Wheat/Leaf Disc Preventative (Brown Rust): Wheat leaf segments cultivated variety (cv) Kanzler were placed on agar in 24-well plates and sprayed with formulated test compound diluted in water at an application rate of 200 ppm. The leaf disks were inoculated with a spore suspension of the fungus 1 day after application. The inoculated leaf segments were incubated at 19° C. and 75% relative humidity under a light regime of 12/12 h (light/dark) in a climate cabinet and the activity of a compound was assessed as percent disease control compared to untreated when an appropriate level of disease damage appears in untreated check leaf segments (7-9 days after application).

Pyrenophora teres = Pyrenophora teres / barley / leaf disc preventative (net blotch); format: in vivo; conditions: foliar, barley leaf segments cv Hasso, inoculated two days after application, assessed 5-7 days after application, read-out: control of Pyrenophora teres (disease control compared to untreated)
Method: Pyrenophora Teres/Barley/Leaf Disc Preventative (Net Blotch): Barley leaf segments cv Hasso are placed on agar in a 24-well plate and sprayed with formulated test compound diluted in water at an application rate of 200 ppm. The leaf segments are inoculated with a spore suspension of the fungus two days after application of the test solution. The inoculated leaf segments are incubated at 20° C. and 65% relative humidity under a light regime of 12/12 h (light/dark) in a climate cabinet and the activity of a compound is assessed as disease control compared to untreated when an appropriate level of disease damage appears in untreated check leaf segments (5-7 days after application).

[2] = system: Botryotinia fuckeliana (Botrytis cinerea); experiment: Botryotinia fuckeliana (Botrytis cinerea) / liquid culture (gray mould); format: cell-based; conditions: Vogels broth, 24° C., 3-4 days after application, read-out: control of Botryotinia fuckeliana (inhibition of growth, photometric)
Method: (§1) Botryotinia Fuckeliana (Botrytis cinerea)/Liquid Culture (Gray Mould): Conidia of the fungus from cryogenic storage were directly mixed into nutrient broth (Vogels broth). After placing a DMSO solution of test compound into a 96-well microtiter plate at an application rate of 200 ppm, the nutrient broth containing the fungal spores was added. The test plates were incubated at 24° C. and the inhibition of growth was determined photometrically 3-4 days after application.

[3] = system: Glomerella lagenarium (Colletotrichum lagenarium); experiment: Glomerella lagenarium (Colletotrichum lagenarium) / liquid culture (anthracnose); format: cell-based; conditions: Colletotrichum orbiculare, PDB, 24° C., 3-4 days after application, read-out: control of Glomerella lagenarium (inhibition of growth, photometric)
Method: as §1, with “Glomerella lagenarium (Colletotrichum lagenarium)/Liquid” for “Botryotinia Fuckeliana (Botrytis cinerea)/Liquid”, “(Anthracnose):” for “(Gray Mould):”, “(PDB potato dextrose” for “(Vogels”, “is measured” for “was determined”

[4] = system: Mycosphaerella graminicola (Septoria tritici); experiment: Mycosphaerella graminicola (Septoria tritici) / liquid culture (Septoria blotch); format: cell-based; conditions: Zymoseptoria tritici, PDB, 24° C., 4-5 days after application, read-out: control of Mycosphaerella graminicola (inhibition of growth, photometric)
Method: as §1, with “Mycosphaerella graminicola (Septoria tritici)/Liquid” for “Botryotinia Fuckeliana (Botrytis cinerea)/Liquid”, “(Septoria Blotch):” for “(Gray Mould):”, “(PDB potato dextrose” for “(Vogels”, “4-5” for “3-4”

Gaeumannomyces graminis = Gaeumannomyces graminis / liquid culture (take-all of cereals); format: cell-based; conditions: PDB, 24° C., 4-5 days after application, read-out: control of Gaeumannomyces graminis (inhibition of growth, photometric)
Method: (§2) Gaeumannomyces graminis/Liquid Culture (Take-all of Cereals): Mycelial fragments of the fungus from cryogenic storage were directly mixed into nutrient broth (PDB potato dextrose broth). After placing a DMSO solution of test compound into a 96-well microtiter plate at an application rate of 200 ppm, the nutrient broth Cp.33, containing the fungal spores is added. The test plates were incubated at 24° C. and the inhibition of growth was determined photometrically 4-5 days after application.

[5] = system: Thanatephorus cucumeris (Rhizoctonia solani); experiment: Thanatephorus cucumeris (Rhizoctonia solani) / liquid culture (foot rot, damping-off); format: cell-based; conditions: PDB, 24° C., 3-4 days after application, read-out: control of Thanatephorus cucumeris (inhibition of growth, photometric)
Method: Thanatephorus cucumeris (Rhizoctonia solani)/Liquid Culture (Foot Rot, Damping-Off): Mycelia fragments of a newly grown liquid culture of the fungus are directly mixed into nutrient broth (PDB potato dextrose broth). After placing a DMSO solution of the test compounds into a 96-well microtiter plate at an application rate of 200 ppm, the nutrient broth containing the fungal material was added. The test plates were incubated at 24° C. and the inhibition of growth was determined photometrically 3-4 days after application.

[6] = system: Monographella nivalis (Microdochium nivale); experiment: Monographella nivalis (Microdochium nivale) / liquid culture (foot rot cereals); format: cell-based; conditions: PDB, 24° C., 4-5 days after application, read-out: control of Monographella nivalis (inhibition of growth, photometric)
Method: as §2, with “Monographella nivalis (Microdochium nivale)/Liquid” for “Gaeumannomyces graminis/Liquid”, “(Foot Rot” for “(Take-all of”, “Conidia” for “Mycelial fragments”, “broth” for “broth Cp.33,”, “was” for “is”

Sclerotinia sclerotiorum = Sclerotinia sclerotiorum liquid culture (cottony rot / white mold); format: cell-based; conditions: PDB, 24° C., 3-4 days after application, read-out: control of Sclerotinia sclerotiorum (inhibition of growth, photometric)
Method: Sclerotinia sclerotiorum (Cottony Rot/White Mold): Mycelia fragments of a newly grown liquid culture of the fungus were directly mixed into nutrient broth (PDB potato dextrose broth). After placing a (DMSO) solution of test compound into a microtiter plate (96-well format) the nutrient broth containing the fungal material was added. The test plates are incubated at 24° C. and the inhibition of growth was determined photometrically 3-4 days after application.

[7] = system: Phaeosphaeria nodorum (Septoria nodorum); experiment: Phaeosphaeria nodorum (Septoria nodorum) / wheat / leaf disc preventative (glume blotch); format: in vivo; conditions: Parastagonospora nodorum, foliar, wheat leaf segments cv Kanzler, inoculated 2 days after application, assessed 5-7 days after application, read-out: control of Phaeosphaeria nodorum (percent disease control compared to untreated)
Method: Phaeosphaeria nodorum (Septoria nodorum)/Wheat/Leaf Disc Preventative (Glume Blotch): Wheat leaf segments cv Kanzler were placed on agar in a 24-well plate and sprayed with formulated test compound diluted in water at an application rate of 200 ppm. The leaf disks are inoculated with a spore suspension of the fungus 2 days after application. The inoculated test leaf disks are incubated at 20° C. and 75% relative humidity under a light regime of 12/12 h (light/dark) in a climate cabinet and the activity of a compound is assessed as percent disease control compared to untreated when an appropriate level of disease damage appears in untreated check leaf disks (5-7 days after application).

CCn1c(-n2ncnc2N)nc2cncc(-c3cc(Cl)ccc3F)c21 [Compound 91, 2-[7-(5-chloro-2-fluorophenyl)-1-ethylimidazo[4,5-c]pyridin-2-yl]-1,2,4-triazol-3-amine]
≥ 80%: pest or weed control at 200 ppm [1] | pest or weed control at 200 ppm (Pyrenophora teres) | inhibition at 20 ppm [2] | inhibition at 20 ppm [3] | inhibition at 20 ppm [4] | inhibition at 20 ppm (Gaeumannomyces graminis) | inhibition at 20 ppm [5] | inhibition at 20 ppm [6] | inhibition at 20 ppm (Sclerotinia sclerotiorum)

CCCn1c(-n2ncnc2N)nc2cncc(/C(C)=N\OCC=C(C)C)c21 [Compound 188]
≥ 80%: pest or weed control at 200 ppm [1] | pest or weed control at 200 ppm [7] | pest or weed control at 200 ppm (Pyrenophora teres) | inhibition at 20 ppm [2] | inhibition at 20 ppm [4] | inhibition at 20 ppm (Gaeumannomyces graminis) | inhibition at 20 ppm [5] | inhibition at 20 ppm [6] | inhibition at 20 ppm (Sclerotinia sclerotiorum)

CCn1c(-n2ncnc2N)nc2cncc(-c3cc4ccccc4nc3F)c21 [Compound 66, 2-[1-ethyl-7-(2-fluoroquinolin-3-yl)imidazo[4,5-c]pyridin-2-yl]-1,2,4-triazol-3-amine]
≥ 80%: pest or weed control at 200 ppm [7] | pest or weed control at 200 ppm (Pyrenophora teres) | inhibition at 20 ppm [2] | inhibition at 20 ppm [4] | inhibition at 20 ppm (Gaeumannomyces graminis) | inhibition at 20 ppm [5] | inhibition at 20 ppm (Sclerotinia sclerotiorum)

CCCON=C(C)c1cncc2nc(-n3ncnc3N)n(CC)c12 [Compound 143]
≥ 80%: pest or weed control at 200 ppm [1] | pest or weed control at 200 ppm [7] | pest or weed control at 200 ppm (Pyrenophora teres) | inhibition at 20 ppm [2] | inhibition at 20 ppm [3] | inhibition at 20 ppm [4] | inhibition at 20 ppm [5] | inhibition at 20 ppm (Sclerotinia sclerotiorum)

CCn1c(-n2ncnc2N)nc2cncc(-c3ccc(C)c(F)c3)c21 [Compound 41, 2-[1-ethyl-7-(3-fluoro-4-methylphenyl)imidazo[4,5-c]pyridin-2-yl]-1,2,4-triazol-3-amine]
≥ 80%: pest or weed control at 200 ppm [1] | pest or weed control at 200 ppm (Pyrenophora teres) | inhibition at 20 ppm [2] | inhibition at 20 ppm [4] | inhibition at 20 ppm [5] | inhibition at 20 ppm (Sclerotinia sclerotiorum)

CCn1c(-n2ncnc2N)nc2cncc(-c3cc(F)cc(F)c3)c21 [Compound 37, 2-[7-(3,5-difluorophenyl)-1-ethylimidazo[4,5-c]pyridin-2-yl]-1,2,4-triazol-3-amine]
≥ 80%: pest or weed control at 200 ppm [7] | pest or weed control at 200 ppm (Pyrenophora teres) | inhibition at 20 ppm [2] | inhibition at 20 ppm [3] | inhibition at 20 ppm [4] | inhibition at 20 ppm [5]

CCn1c(-n2ncnc2N)nc2cncc(-c3cc(C(F)(F)F)ccc3F)c21 [Compound 84, 2-[1-ethyl-7-[2-fluoro-5-(trifluoromethyl)phenyl]imidazo[4,5-c]pyridin-2-yl]-1,2,4-triazol-3-amine]
≥ 80%: pest or weed control at 200 ppm (Pyrenophora teres) | inhibition at 20 ppm [2] | inhibition at 20 ppm [4] | inhibition at 20 ppm (Gaeumannomyces graminis) | inhibition at 20 ppm [5] | inhibition at 20 ppm (Sclerotinia sclerotiorum)

CCn1c(-n2ncnc2N)nc2cncc(-c3cccc(OC)c3OC)c21 [Compound 83, 2-[7-(2,3-dimethoxyphenyl)-1-ethylimidazo[4,5-c]pyridin-2-yl]-1,2,4-triazol-3-amine]
≥ 80%: pest or weed control at 200 ppm [1] | pest or weed control at 200 ppm [7] | pest or weed control at 200 ppm (Pyrenophora teres) | inhibition at 20 ppm [2] | inhibition at 20 ppm [4] | inhibition at 20 ppm (Gaeumannomyces graminis) | inhibition at 20 ppm [5]

CCn1c(-n2ncnc2N)nc2cncc(/C(C)=N/OC/C=C/Cl)c21 [Compound 150]
≥ 80%: pest or weed control at 200 ppm [1] | pest or weed control at 200 ppm (Pyrenophora teres) | inhibition at 20 ppm [2] | inhibition at 20 ppm [3] | inhibition at 20 ppm [4] | inhibition at 20 ppm [5] | inhibition at 20 ppm [6] | inhibition at 20 ppm (Sclerotinia sclerotiorum)

CCn1c(-n2ncnc2N)nc2cncc(-c3ccc(Cl)cc3)c21 [Compound 35, 2-[7-(4-chlorophenyl)-1-ethylimidazo[4,5-c]pyridin-2-yl]-1,2,4-triazol-3-amine]
≥ 80%: pest or weed control at 200 ppm [1] | pest or weed control at 200 ppm (Pyrenophora teres) | inhibition at 20 ppm [2] | inhibition at 20 ppm [3] | inhibition at 20 ppm [4] | inhibition at 20 ppm [5] | inhibition at 20 ppm (Sclerotinia sclerotiorum)

CCCn1c(-n2ncnc2N)nc2cncc(/C(C)=N/OC/C=C\Cl)c21 [Compound 181]
≥ 80%: pest or weed control at 200 ppm [1] | pest or weed control at 200 ppm (Pyrenophora teres) | inhibition at 20 ppm [2] | inhibition at 20 ppm [4] | inhibition at 20 ppm (Gaeumannomyces graminis) | inhibition at 20 ppm [5] | inhibition at 20 ppm [6] | inhibition at 20 ppm (Sclerotinia sclerotiorum)

CCn1c(-n2ncnc2N)nc2cncc(-c3ccc(C(F)(F)F)cc3Cl)c21 [Compound 97]
≥ 80%: pest or weed control at 200 ppm [1] | pest or weed control at 200 ppm (Pyrenophora teres) | inhibition at 20 ppm [2] | inhibition at 20 ppm [3] | inhibition at 20 ppm [4] | inhibition at 20 ppm (Gaeumannomyces graminis) | inhibition at 20 ppm [5] | inhibition at 20 ppm [6] | inhibition at 20 ppm (Sclerotinia sclerotiorum)

CCCn1c(-n2ncnc2N)nc2cncc(-c3ccccc3F)c21 [Compound 121, 2-[7-(2-fluorophenyl)-1-propylimidazo[4,5-c]pyridin-2-yl]-1,2,4-triazol-3-amine]
≥ 80%: pest or weed control at 200 ppm [1] | pest or weed control at 200 ppm [7] | pest or weed control at 200 ppm (Pyrenophora teres) | inhibition at 20 ppm [2] | inhibition at 20 ppm [3] | inhibition at 20 ppm [4] | inhibition at 20 ppm (Gaeumannomyces graminis) | inhibition at 20 ppm [5]
